In one test the test system is HEK293. Briefly: EBV LMP1 TES2 canonical NF-kB signalling blockers – cell-based, HEK293, luciferase, cherry-pick, dose response (AID 588343). It is filed as functional. The note with it: Homo sapiens.
The target of test [1] is Latent membrane protein 1 (Human herpesvirus 4 (strain B95-8), UniProt P03230). Briefly: LMP1 TES1 pathway selectivity over dsRED control – imaging, HEK293T, dual-color eGFP/dsRED, cherry-picks, selectivity assay for LMP1 NF-kB inhibitor project, dose response (AID 588398). The format is functional, cell-based.
For test [2], the target named is T1, Corticotropin-releasing factor receptor 2/Corticotropin-releasing factor-binding protein (Homo sapiens, UniProt P24387+Q13324).
T1 sequence (Q13324 whole entry): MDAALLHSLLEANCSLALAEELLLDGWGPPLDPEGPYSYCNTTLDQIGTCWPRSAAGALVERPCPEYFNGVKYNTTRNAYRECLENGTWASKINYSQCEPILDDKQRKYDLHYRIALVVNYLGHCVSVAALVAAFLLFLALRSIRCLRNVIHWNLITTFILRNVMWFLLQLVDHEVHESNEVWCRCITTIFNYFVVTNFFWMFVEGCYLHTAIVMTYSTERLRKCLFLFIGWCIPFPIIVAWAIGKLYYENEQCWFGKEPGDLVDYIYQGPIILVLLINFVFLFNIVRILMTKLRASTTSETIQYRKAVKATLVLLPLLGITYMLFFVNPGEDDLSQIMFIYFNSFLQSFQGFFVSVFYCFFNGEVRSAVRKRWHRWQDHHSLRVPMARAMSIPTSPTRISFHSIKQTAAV
T1 sequence (P24387 whole entry): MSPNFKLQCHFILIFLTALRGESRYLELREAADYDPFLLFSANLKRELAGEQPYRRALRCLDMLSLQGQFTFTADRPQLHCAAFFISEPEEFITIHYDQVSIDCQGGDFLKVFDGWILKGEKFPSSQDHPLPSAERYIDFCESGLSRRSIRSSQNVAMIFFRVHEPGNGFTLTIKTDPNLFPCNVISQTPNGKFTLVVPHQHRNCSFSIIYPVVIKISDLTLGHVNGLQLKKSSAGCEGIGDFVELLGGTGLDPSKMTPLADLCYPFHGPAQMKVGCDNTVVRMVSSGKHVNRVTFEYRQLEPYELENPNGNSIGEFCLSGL
Put plainly: activators of CRF receptor 2 with binding protein – uHTS hits, confirmation (AID 602473). The format is functional. The note with it: read-out: EC50_Mean.

For a further test, the system named is CHO. Briefly: CHO cell viability loss, potency – luminescence, cytotoxicity control for TLR9-MyD88 binding inhibitor project, dose response (AID 588339).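 Further: CHO cells stably coexpressing TLR9 and MyD88 fusions from primary screen; compound exposure lasted 48 hours before viability readout.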 It is filed as functional, cell-based, hamster. The note with it: Cricetulus griseus.
For the next test, the target named is Beta Lactamase (Pseudomonas aeruginosa, UniProt Q932Y6). Briefly: BLA reporter interference, concentration series – BLA reporter cells, FRET fluorescence, artefact control for TLR9-MyD88 binding inhibitor project, dose response (AID 588341).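 Further: cell based assay in CHO-K1 cells stably expressing beta-lactamase.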 The format is cell-based.

These results are taken from ChEMBL document CHEMBL1201862, “PubChem BioAssay data set” (2004).

Calls of active or inactive are those of the source.

Chain of Beta Lactamase (Q932Y6 whole entry): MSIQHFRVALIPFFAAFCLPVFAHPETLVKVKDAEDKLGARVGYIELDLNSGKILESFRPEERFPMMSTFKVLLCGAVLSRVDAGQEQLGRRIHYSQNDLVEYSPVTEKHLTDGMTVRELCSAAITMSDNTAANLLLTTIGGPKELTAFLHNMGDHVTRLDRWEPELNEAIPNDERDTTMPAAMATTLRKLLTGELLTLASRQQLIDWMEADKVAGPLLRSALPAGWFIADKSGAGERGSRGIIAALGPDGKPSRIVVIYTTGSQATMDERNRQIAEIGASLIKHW
Chain of Latent membrane protein 1 (P03230 whole entry): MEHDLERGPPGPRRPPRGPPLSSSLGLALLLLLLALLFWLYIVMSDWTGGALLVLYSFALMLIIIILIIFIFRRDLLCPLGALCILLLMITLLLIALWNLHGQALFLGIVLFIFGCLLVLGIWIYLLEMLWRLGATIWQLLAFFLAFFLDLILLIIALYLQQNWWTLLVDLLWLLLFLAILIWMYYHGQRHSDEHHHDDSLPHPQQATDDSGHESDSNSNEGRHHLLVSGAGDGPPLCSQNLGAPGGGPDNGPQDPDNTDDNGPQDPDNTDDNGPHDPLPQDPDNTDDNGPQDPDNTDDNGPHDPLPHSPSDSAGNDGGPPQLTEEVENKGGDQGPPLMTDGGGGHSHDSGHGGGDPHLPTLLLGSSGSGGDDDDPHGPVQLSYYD

Take `CC(=O)N1c2ccc(S(=O)(=O)N3CCC(C(=O)N4CCN(c5ccc(Cl)cc5)CC4)CC3)cc2CC1C` (stereo not given): the figures for the AC50 (in the test on HEK293; in test [1]) were 1.01 µM (active) and 108 µM (active), respectively.
As for `CC(O)CN(CC(C)O)c1ccc2c(c1)Cc1cc([N+](=O)[O-])ccc1-2` (stereo not given), the EC50 in test [2] is 0.87 µM (active). The values for the IC50 with CHO and on Beta Lactamase were > 49.8 µM (inactive) and 5.09 µM (active), respectively.

For orientation: AC50 means the concentration giving half of the maximal activity seen. Usually IC50 stands for the concentration needed to halve the response being measured.
